Test results as given in US20160152579A1, “OXAZOLIDINONE DERIVATIVES AS PPAR LIGANDS” (CONSEJO SUPERIOR DE INVESTIGACIONES CIENTÍFICAS (CSIC), priority 2013, published 2016).

Legend:
[1] = target: T1, human PPAR-alpha receptor (Homo sapiens, UniProt Q07869); test: Cell transfection and luciferase reporter gene assay, PPAR-alpha activation in MCF-7 cells; type: cell-based; conditions: luciferase reporter, 16 h treatment
T1 construct: expressed in transfected cells; host or cells: MCF-7 human breast cancer cells, pSG5 expression vector
T1 sequence (Q07869 whole entry): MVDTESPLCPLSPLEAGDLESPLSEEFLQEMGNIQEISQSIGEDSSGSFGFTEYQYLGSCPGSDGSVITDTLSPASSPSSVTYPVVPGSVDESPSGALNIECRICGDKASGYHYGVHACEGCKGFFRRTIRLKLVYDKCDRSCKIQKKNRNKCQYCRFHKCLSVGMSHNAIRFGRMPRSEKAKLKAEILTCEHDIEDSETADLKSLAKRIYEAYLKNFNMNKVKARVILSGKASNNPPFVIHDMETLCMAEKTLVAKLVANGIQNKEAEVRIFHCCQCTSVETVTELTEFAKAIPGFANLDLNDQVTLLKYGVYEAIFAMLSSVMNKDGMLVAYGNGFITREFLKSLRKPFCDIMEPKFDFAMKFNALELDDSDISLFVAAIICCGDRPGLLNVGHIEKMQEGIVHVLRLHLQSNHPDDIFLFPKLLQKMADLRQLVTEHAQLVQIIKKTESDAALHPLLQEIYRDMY
T1 sequence (P19793 whole entry partner): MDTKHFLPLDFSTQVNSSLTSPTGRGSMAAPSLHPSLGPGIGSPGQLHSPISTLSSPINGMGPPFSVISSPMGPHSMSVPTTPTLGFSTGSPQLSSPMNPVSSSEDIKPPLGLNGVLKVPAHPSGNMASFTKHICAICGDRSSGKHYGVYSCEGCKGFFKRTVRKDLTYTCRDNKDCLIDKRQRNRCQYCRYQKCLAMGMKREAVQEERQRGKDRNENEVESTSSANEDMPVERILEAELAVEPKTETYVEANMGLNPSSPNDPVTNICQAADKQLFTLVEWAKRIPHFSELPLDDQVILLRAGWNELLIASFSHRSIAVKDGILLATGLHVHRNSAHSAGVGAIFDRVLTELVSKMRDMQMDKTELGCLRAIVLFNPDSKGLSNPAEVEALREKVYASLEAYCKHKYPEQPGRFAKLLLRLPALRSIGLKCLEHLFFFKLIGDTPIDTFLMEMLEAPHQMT
T1 sequence (Q15788 whole entry partner): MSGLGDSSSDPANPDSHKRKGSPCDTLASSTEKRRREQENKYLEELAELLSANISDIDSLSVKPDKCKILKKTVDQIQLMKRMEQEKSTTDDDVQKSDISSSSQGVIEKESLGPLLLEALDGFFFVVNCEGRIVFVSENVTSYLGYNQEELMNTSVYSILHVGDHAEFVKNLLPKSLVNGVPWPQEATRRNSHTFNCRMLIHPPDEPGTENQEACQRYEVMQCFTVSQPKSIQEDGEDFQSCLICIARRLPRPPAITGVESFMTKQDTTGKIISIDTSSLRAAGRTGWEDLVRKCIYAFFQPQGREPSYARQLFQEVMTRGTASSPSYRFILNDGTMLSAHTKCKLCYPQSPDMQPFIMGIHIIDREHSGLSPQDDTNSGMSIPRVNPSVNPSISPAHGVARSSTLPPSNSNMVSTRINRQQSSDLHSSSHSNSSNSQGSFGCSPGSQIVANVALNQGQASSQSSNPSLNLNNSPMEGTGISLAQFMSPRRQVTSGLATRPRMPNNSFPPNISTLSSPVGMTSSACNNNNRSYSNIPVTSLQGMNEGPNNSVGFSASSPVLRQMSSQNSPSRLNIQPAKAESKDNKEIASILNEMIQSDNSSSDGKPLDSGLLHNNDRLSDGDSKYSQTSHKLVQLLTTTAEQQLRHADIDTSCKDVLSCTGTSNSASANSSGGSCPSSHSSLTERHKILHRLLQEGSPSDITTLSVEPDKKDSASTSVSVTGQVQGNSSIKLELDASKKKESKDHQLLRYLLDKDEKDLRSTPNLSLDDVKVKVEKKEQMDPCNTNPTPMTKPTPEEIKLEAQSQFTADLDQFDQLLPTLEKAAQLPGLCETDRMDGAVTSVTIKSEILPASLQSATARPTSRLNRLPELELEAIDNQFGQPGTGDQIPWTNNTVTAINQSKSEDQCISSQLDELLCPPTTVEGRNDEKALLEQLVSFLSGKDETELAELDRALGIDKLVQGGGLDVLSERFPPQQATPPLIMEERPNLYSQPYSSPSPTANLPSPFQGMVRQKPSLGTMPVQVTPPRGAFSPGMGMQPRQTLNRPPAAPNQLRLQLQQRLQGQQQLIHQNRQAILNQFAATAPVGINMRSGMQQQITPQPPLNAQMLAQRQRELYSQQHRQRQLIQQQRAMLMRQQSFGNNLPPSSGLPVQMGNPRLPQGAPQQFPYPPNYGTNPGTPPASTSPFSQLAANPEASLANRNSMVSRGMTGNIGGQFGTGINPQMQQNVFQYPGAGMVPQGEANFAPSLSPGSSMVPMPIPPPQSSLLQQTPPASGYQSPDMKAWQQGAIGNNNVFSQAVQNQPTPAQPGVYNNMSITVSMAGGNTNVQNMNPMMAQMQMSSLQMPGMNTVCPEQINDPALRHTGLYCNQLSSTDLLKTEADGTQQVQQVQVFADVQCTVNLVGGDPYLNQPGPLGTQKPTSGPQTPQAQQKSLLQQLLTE
Method: (§1) The reporter gene assay is an in vitro method used to determine and quantify the existence of physical interactions between proteins, useful for confirming in this case the interaction of the transcription factors PPAR-alpha with co-activator SRC-1, and PPAR-gamma with PPRE in MCF-7 cells.
(§2) For the in vitro experiments, with cell culture all the compounds were dissolved and diluted in dimethylsulfoxide (DMSO) (Sigma Aldrich Spain).
(§3) DNA constructs: Eukaryotic pSG5 expression vector (4100 base pairs, Stratagene Co.) was used as the cDNA expression vehicle for human PPAR-alpha receptor and PPAR-gamma receptor. This construction was used for the in vivo overexpression of the protein in mammalian cells.
(§4) Four copies of the human CPTI gene DR1-type RE (sequence […]) (Ref: Tinahones F J, Moreno-Santos I, Vendrell J, Chacon M R, Garrido-Sanchez L, Garcia-Wasntes E, and Macias-Gonzalez M. Obesity 2012, 20: 488-497) were individually fused with the thymidine kinase promoter in the pGL-2 Basic vector (5598 base pairs, Promega Co.), which lacks a eukaryotic promoter and contains a firefly (Photinus pyralis) luciferase reporter gene. This vector is widely used in the quantitative analysis of factors capable of regulating gene expression in mammalian cells. This pGL-2 Basic vector also has an ampicillin resistance region (gene for β-lactamase). […]

[2] = target: T2, human PPAR-gamma receptor (Homo sapiens, UniProt P37231); test: Cell transfection and luciferase reporter gene assay, PPAR-gamma activation in MCF-7 cells; type: cell-based; conditions: luciferase reporter, 16 h treatment
T2 construct: expressed in transfected cells; host or cells: MCF-7 human breast cancer cells, pSG5 expression vector
T2 sequence (P37231 1-505): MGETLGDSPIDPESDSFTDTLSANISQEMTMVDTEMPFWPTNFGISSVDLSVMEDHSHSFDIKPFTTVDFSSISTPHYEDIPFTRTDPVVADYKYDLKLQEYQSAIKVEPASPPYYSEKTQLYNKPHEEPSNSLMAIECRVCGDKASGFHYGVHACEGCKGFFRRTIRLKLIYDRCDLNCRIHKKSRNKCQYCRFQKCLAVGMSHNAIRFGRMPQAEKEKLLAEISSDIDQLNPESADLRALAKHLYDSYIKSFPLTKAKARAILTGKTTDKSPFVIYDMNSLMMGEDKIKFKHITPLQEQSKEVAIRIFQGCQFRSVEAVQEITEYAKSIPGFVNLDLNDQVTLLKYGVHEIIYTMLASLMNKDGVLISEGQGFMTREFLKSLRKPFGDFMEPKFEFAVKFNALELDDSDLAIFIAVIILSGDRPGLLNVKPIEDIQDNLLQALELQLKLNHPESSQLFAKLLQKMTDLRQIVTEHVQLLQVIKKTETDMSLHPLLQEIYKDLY
Method: as §1, §2, §3, §4

Male Wistar albino rats = test: In vivo assay on food ingestion, acute treatment; parameters: species or system Rattus Norvegicus; conditions: for course of the effect on food ingestion over time (30-240 min) / reduction of food ingestion: rats fasted 24 h
Method: Male Wistar albino rats (Rattus Norvegicus) from Charles Rivers Laboratories España, S. A. (Barcelona, Spain), were used, having weights ranging between 300-350 g at the start of the experiments. The animals were caged individually, in controlled temperature (22° C.) and moisture (55%) conditions under a 12-hour light/dark cycle (light off from 8:00 AM to 8:00 PM). The rats had free access to food and water in their corresponding cages. All the training and experimental sessions were carried out after 8:00 PM hours.
All the drugs were prepared in fresh conditions in a solution consisting of 5% Tween-80 in sterile physiological serum. The different doses were prepared in different vials such that Tween-80 was added after weighing the necessary amount of compound. The compound, with its corresponding volume of surfactant, was sonicated and homogenized (with the aid of a magnetic stirrer) for 15-30 minutes. Then, the necessary volume of serum was added until completing the solution.
The compounds were administered intraperitoneally (i.p.) in an acute manner in an administration volume of 1 ml per kg of animal.
Before starting the ingestion experiments, the animals were habituated to being handled. For this purpose, 48-72 hours before each experimental session, the rats were placed in cages where the base material (sawdust) was removed, and small containers with food were placed in the cages for 4 hours. After this initial habituation phase, the animals were deprived of food for 24 hours, always having free access to water.
After said fasting period, the different treatment groups were established, and the base material was removed from the cages, weighing the animals and weighing the small containers with food (commercial laboratory feed). Additionally, the water container was weighed. 15 minutes after administering the compounds, the respective weighed food container was given to each animal, and it was again weighed at different times (30, 60, 120 and 240 minutes). In one case it was weighed 24 hours after being given.
Food consumption was represented as relative accumulated consumption (g of food per kg of animal). The water containers were also weighed at the end of the experiment.

| EC50 [1] | EC50 [2] | SMILES | course of the effect on food ingestion over time (30-240 min) (Male Wistar albino rats; acute i.p. administration) | reduction of food ingestion (Male Wistar albino rats; effective dose 3.0 mg/kg i.p., FIG. 1) | effect on accumulated food ingestion 24 hours after administration (Male Wistar albino rats; 24 h after i.p. administration, FIG. 3) | dose dependence of the effect on food ingestion (Male Wistar albino rats; acute i.p. administration, FIG. 2) | reduction of food ingestion (Male Wistar albino rats; effective dose 1.0 mg/kg i.p., FIG. 2) |
| --- | --- | --- | --- | --- | --- | --- | --- |
| 670 ± 157 nM | 1290 nM | CC(C)(C)c1ccc(CNC(=O)c2ccc(NC(=O)c3cccc(CN4C(=O)OC[C@H]4Cc4ccccc4)c3)cc2)cc1 [Compound 1, (R)-3-((4-benzyl-2-oxooxazolidin-3-yl)methyl)-N-(4-((4-(tert-butyl)benzyl)carbamoyl)phenyl)benzamide] | effect disappearing 240 minutes after the administration | about 50% |  |  |  |
| 821 ± 139 nM | 1620 nM | CCCCCNC(=O)c1ccc(NC(=O)c2cccc(CN3C(=O)OC[C@H]3Cc3ccccc3)c2)cc1 [Compound 5, (R)-3-((4-benzyl-2-oxooxazolidin-3-yl)methyl)-N-(4-(pentylcarbamoyl)phenyl)benzamide] | effect maintained over time after 240 minutes |  | still has an effect 24 hours after administration | active in a dose-dependent manner | about 50% |
